{"source": "paper PMC5405701", "about": "(ChemMedChem, 2017)", "key": {"[1]": {"biological_target": "T1, human ERα ligand binding domain (LBD) (Homo sapiens, UniProt P03372)", "T1 sequence (P03372 311-547 limits assumed)": "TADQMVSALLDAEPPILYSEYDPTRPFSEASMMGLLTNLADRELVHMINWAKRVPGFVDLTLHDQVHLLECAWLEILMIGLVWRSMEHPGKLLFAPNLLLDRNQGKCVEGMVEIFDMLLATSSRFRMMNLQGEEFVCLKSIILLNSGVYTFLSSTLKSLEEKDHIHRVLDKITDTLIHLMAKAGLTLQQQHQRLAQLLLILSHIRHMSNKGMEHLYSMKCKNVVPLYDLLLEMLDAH", "assay": "competitive fluorometric", "details": "relative to parent 2a (compared to 2a and 4a)"}, "[2]": {"biological_target": "human ERβ ligand binding domain (LBD) (Homo sapiens, UniProt Q92731)", "sequence (Q92731 264-498 limits assumed)": "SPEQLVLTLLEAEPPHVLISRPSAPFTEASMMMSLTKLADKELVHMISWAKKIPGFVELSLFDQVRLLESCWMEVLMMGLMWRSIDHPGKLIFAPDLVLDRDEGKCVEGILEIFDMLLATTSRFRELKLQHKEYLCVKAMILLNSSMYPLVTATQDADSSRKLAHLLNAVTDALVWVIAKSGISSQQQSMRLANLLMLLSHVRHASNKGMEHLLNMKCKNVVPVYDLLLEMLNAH", "assay": "competitive fluorometric", "details": "ratio of RBA ERβ to RBA ERα"}, "[3]": {"biological_target": "ERα (Homo sapiens, UniProt P03372)", "sequence (P03372 whole entry)": "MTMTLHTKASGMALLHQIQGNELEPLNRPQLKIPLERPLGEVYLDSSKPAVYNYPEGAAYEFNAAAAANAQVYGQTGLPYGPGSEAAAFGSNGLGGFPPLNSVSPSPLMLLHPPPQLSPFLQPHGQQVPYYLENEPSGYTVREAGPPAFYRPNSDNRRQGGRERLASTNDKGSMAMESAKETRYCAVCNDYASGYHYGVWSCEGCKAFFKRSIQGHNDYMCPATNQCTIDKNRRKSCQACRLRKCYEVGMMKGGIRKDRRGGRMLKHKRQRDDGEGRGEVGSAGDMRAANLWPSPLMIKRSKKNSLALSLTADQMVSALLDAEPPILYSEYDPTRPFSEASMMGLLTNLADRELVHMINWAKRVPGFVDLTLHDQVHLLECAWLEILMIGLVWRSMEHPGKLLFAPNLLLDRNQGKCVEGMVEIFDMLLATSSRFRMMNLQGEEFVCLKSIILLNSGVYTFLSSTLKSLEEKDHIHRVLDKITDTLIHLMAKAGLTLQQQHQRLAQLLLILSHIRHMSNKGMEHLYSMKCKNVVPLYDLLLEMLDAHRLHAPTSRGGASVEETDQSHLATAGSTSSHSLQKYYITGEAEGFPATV", "assay": "cell-based", "format": "cell-based"}, "[4]": {"biological_target": "ERβ (Homo sapiens, UniProt Q92731)", "sequence (Q92731 whole entry)": "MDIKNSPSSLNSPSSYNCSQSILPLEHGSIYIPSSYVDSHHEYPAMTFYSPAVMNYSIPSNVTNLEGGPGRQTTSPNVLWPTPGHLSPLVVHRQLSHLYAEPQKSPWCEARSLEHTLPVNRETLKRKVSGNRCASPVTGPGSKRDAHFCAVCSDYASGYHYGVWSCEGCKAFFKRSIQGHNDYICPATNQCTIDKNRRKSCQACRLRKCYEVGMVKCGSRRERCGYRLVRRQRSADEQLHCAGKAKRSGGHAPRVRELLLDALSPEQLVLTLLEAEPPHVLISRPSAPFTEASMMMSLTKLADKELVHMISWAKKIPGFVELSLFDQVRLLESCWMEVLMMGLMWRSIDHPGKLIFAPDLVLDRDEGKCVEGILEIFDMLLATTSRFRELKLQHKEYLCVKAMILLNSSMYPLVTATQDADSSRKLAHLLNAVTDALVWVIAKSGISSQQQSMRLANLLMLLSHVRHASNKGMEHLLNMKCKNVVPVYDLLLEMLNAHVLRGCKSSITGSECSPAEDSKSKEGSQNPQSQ", "assay": "cell-based", "format": "cell-based"}, "[5]": {"test_system": "MCF-7 breast cancer cells", "assay": "antiproliferative activity, MTT assay, MCF-7", "details": "Homo sapiens, MCF7, 72 h, read-out: MCF-7 Inhibition (%)"}}, "note": "Values joined by “and” are separate entries in the source; they are usually repeats but may differ in a detail not shown here. Equal values may be shown once.", "data": [{"compound": "Oc1ccc(-c2cc(Br)c(-c3ccc(O)cc3)[se]2)cc1", "note": "[Compound 6a, 3-Bromo-2,5-bis(4-hydroxyphenyl)selenophene]", "values": [{"measurement": "fold increase in binding affinity for ERα over 2a", "setting": "[1]", "result": "8 fold and ~10 fold"}, {"measurement": "β/α", "setting": "[2]", "result": 2.32}, {"measurement": "EC50", "setting": "[3]", "result": 15, "unit": "nM"}, {"measurement": "Agonist Mode ERα Eff (%E2)", "setting": "[3]; maximal response as percentage of response to 10^−8 M E2, HEK293T", "result": "69 ± 11", "unit": "%E2"}, {"measurement": "transcriptional activity profile on ERα", "setting": "[3]; reporter gene assay, HEK293T", "result": "full agonist"}, {"measurement": "EC50", "setting": "[4]", "result": 13, "unit": "nM"}, {"measurement": "Emax", "setting": "[4]; HEK-293T, 24 h, read-out: Agonist Mode ERβ Eff (%E2)", "result": "40 ± 5", "unit": "%"}, {"measurement": "transcriptional activity profile on ERβ", "setting": "[4]; reporter gene assay, HEK293T", "result": "partial agonist"}, {"measurement": "inhibition at 10 µM", "setting": "[5]", "result": 0, "unit": "%"}]}]}
